Laboratory results as given in ChEMBL document CHEMBL5579901, “Discovery of Novel [1,2,4]Triazolo[1,5-a]pyrimidine Derivatives as Novel Potent S-Phase Kinase-Associated Protein 2 (SKP2) Inhibitors for the Treatment of Cancer” (J Med Chem, 2024).
The source made the active and inactive calls. The calls are words filed in the database; no cut-off is given here.

Key:
PC-3 [1] = assay: Induction of cell cycle arrest in human PC-3 cells assessed as cells at G2/M phase at 15 uM incubated for 12 hrs by PI staining based flow cytometry (reference value: 21.4%); type: functional
MGC-803 [2] = assay: Induction of cell cycle arrest in human MGC-803 cells assessed as cells at G2/M phase at 15 uM incubated for 6 hrs by PI staining based flow cytometry (reference value: 20.8%); type: functional
PC-3 [3] = assay: Upregulation of p21 protein expression in human PC-3 cells at 5 to 15 uM incubated for 48 hrs by Western blotting analysis; type: functional, cell-based; details: dose 5-15 µM
[4] = Toxicity against NOD-SCID mouse assessed as change in kidney morphology at 25 to 50 mg/kg, IG administered for 21 days by H and E staining based assay; type: organism-based; details: in vivo, po, 504 h, dose 25-50 mg/kg, time 21 day
MGC-803 [5] = assay: Inhibition of cell proliferation in human MGC-803 cells incubated for 72 hrs by MTT assay; type: functional, cell-based; details: MGC-803, 72 h
PC-3 [6] = assay: Induction of cell cycle arrest in human PC-3 cells assessed as cells at G2/M phase at 15 uM incubated for 6 hrs by PI staining based flow cytometry (reference value: 21.4%); type: functional
[7] = Toxicity against NOD-SCID mouse assessed as change in liver morphology at 25 to 50 mg/kg, IG administered for 21 days by H and E staining based assay; type: organism-based; details: in vivo, po, 504 h, dose 25-50 mg/kg, time 21 day
[8] = Volume of distribution at steady state in Sprague-Dawley rat at 1 mg/kg, iv measured upto 24 hrs by LC/MS-MS analysis; type: ADME, organism-based; details: in vivo
[9] = target: T1, Cyclin-dependent kinases regulatory subunit 1/S-phase kinase-associated protein 2 (Homo sapiens) (UniProt P61024+Q13309); assay: Inhibition of GST-tagged SKP2 (unknown origin) binding to His6-tagged CKS1 (unknown origin) incubated for 1 hr by pull down method; type: protein assay
MGC-803 [10] = assay: Inhibition of DNA synthesis in human MGC-803 cells incubated for 24 hrs by EdU staining based fluorescence microscopic analysis; type: functional, cell-based; details: dose 2.5-7.5 µM
MGC-803 [11] = assay: Induction of cell cycle arrest in human MGC-803 cells assessed as cells at S phase at 15 uM incubated for 6 hrs by PI staining based flow cytometry (reference value: 19.6%); type: functional
[12] = target: S-phase kinase-associated protein 2 (Homo sapiens) (UniProt Q13309); assay: Binding affinity to SKP2 in human MGC-803 cells assessed as increase in thermal stability at 57 to 68 degreeC incubated for 4 hrs by CETSA; type: cell-based
PC-3 [13] = assay: Upregulation of p27 protein expression in human PC-3 cells at 15 uM by Western blotting analysis; type: functional, cell-based; details: time 6-48 hrs, TDE = time-dependent effect
MGC-803 [14] = assay: Induction of cell cycle arrest in human MGC-803 cells assessed as cells at G2/M phase at 5 uM incubated for 36 hrs by PI staining based flow cytometry (reference value: 20.6%); type: functional
[15] = AUClast in Sprague-Dawley rat at 1 mg/kg, iv measured upto 24 hrs by LC/MS-MS analysis; type: ADME, organism-based; details: in vivo
MGC-803 [16] = assay: Induction of cell cycle arrest in human MGC-803 cells assessed as cells at G0/G1 phase at 15 uM incubated for 36 hrs by PI staining based flow cytometry (reference value: 57.1%); type: functional
PC-3 [17] = assay: Inhibition of cell proliferation in human PC-3 cells at 2 to 50 uM by MTT assay; type: functional, cell-based; details: dose 2-50 µM, time 24-72 hrs, TDE = time-dependent effect
MGC-803 [18] = assay: Induction of cell cycle arrest in human MGC-803 cells assessed as cells at G0/G1 phase at 15 uM incubated for 24 hrs by PI staining based flow cytometry (reference value: 57.9%); type: functional
PC-3 [19] = assay: Induction of cell cycle arrest in human PC-3 cells assessed as cells at S phase at 15 uM incubated for 48 hrs by PI staining based flow cytometry (reference value: 22.9%); type: functional
PC-3 [20] = assay: Induction of cell cycle arrest in human PC-3 cells assessed as cells at G2/M phase at 15 uM incubated for 24 hrs by PI staining based flow cytometry (reference value: 21.4%); type: functional
MGC-803 [21] = assay: Downregulation of SKP2 protein level in human MGC-803 cells incubated for 48 hrs by Western blotting analysis; type: functional, cell-based; details: dose 5-15 µM
[22] = target: S-phase kinase-associated protein 2 (Homo sapiens) (UniProt Q13309); assay: Binding affinity to SKP2 in human PC-3 cells assessed as increase in thermal stability at 57 to 68 degreeC incubated for 4 hrs by CETSA; type: cell-based
PC-3 [23] = assay: Inhibition of cell proliferation in human PC-3 cells incubated for 24 to 72 hrs by MTT assay; type: functional, cell-based; details: dose 2-50 µM, time 24-72 hrs
PC-3 [24] = assay: Induction of cell cycle arrest in human PC-3 cells assessed as cells at G2/M phase at 5 uM incubated for 36 hrs by PI staining based flow cytometry (reference value: 21.3%); type: functional
MGC-803 [25] = assay: Induction of cell cycle arrest in human MGC-803 cells assessed as cells at G2/M phase at 15 uM incubated for 48 hrs by PI staining based flow cytometry (reference value: 20.8%); type: functional
[26] = target: T1, Cyclin-dependent kinases regulatory subunit 1/S-phase kinase-associated protein 2 (Homo sapiens); assay: Inhibition of GST-tagged SKP2 (unknown origin) binding to His6-tagged CKS1 (unknown origin) at 50 uM preincubated with SKP2 for 10 mins followed by CKS1 addition for 20 mins and measured after by HTRF method relative to control; type: protein assay; details: time 30.0 min
MGC-803 [27] = assay: Induction of cell cycle arrest in human MGC-803 cells assessed as cells at S phase at 7.5 uM incubated for 36 hrs by PI staining based flow cytometry (reference value: 18.2%); type: functional
[28] = Toxicity against NOD-SCID mouse assessed as change in lung morphology at 25 to 50 mg/kg, IG administered for 21 days by H and E staining based assay; type: organism-based; details: in vivo, po, 504 h, dose 25-50 mg/kg, time 21 day
MGC-803 [29] = assay: Induction of cell cycle arrest in human MGC-803 cells assessed as cells at G2/M phase at 15 uM incubated for 36 hrs by PI staining based flow cytometry (reference value: 20.6%); type: functional
PC-3 [30] = assay: Induction of cell cycle arrest in human PC-3 cells assessed as cells at G0/G1 phase at 15 uM incubated for 36 hrs by PI staining based flow cytometry (reference value: 54.5%); type: functional
PC-3 [31] = assay: Induction of cell cycle arrest in human PC-3 cells assessed as cells at S phase at 15 uM incubated for 6 hrs by PI staining based flow cytometry (reference value: 22.9%); type: functional
MGC-803 [32] = assay: Induction of cell cycle arrest in human MGC-803 cells assessed as cells at S phase at 15 uM incubated for 36 hrs by PI staining based flow cytometry (reference value: 18.2%); type: functional
MGC-803 [33] = assay: Induction of cell cycle arrest in human MGC-803 cells assessed as cells at G0/G1 phase at 5 uM incubated for 36 hrs by PI staining based flow cytometry (reference value: 57.1%); type: functional
PC-3 [34] = assay: Downregulation of SKP2 protein level in human PC-3 cells incubated for 48 hrs by Western blotting analysis; type: functional, cell-based; details: dose 5-15 µM
PC-3 [35] = assay: Induction of cell cycle arrest in human PC-3 cells assessed as cells at S phase at 5 uM incubated for 36 hrs by PI staining based flow cytometry (reference value: 22.8%); type: functional

T1 sequence (P61024 2-79 limits assumed): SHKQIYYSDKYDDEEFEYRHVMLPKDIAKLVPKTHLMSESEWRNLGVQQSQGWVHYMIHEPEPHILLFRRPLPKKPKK
T1 sequence (Q13309 whole entry partner): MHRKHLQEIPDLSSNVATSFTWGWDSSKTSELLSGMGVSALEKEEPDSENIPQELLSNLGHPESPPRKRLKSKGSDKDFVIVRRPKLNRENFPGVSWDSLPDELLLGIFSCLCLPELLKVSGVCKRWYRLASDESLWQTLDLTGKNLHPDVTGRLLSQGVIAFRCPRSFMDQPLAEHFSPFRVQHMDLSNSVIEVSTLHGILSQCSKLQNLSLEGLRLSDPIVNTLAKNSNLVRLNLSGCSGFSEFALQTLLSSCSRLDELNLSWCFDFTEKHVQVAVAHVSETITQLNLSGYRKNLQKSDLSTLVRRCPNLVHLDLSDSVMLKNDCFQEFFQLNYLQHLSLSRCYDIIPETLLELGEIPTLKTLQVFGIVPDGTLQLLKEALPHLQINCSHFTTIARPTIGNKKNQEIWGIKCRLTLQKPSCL
Sequence of S-phase kinase-associated protein 2 (Homo sapiens) (Q13309 whole entry): as the sequence (Q13309 whole entry partner) above

For COc1ccc(-c2cc(C)nc3nc(SCc4ccc(Br)cc4)nn23)c(OC)c1, the Activity (PC-3 [1]) was 18.5%, the Activity (MGC-803 [2]) was 21.9% and the Activity (PC-3 [3]) was “Active”. For the same compound, the Activity [4] was “Non-Toxic”, the IC50 (MGC-803 [5]) was 10.8 µM and the Activity (PC-3 [6]) was 20.3%. For the same compound, the Activity [7] was “Non-Toxic”, the Vdss [8] was 8.87 L/kg and the inhibition [9] was “Active”. For the same compound, the inhibition (MGC-803 [10]) was “Dose-Dependent Effect”, the Activity (MGC-803 [11]) was 26.8% and the Activity [12] was “Active”. For the same compound, the Activity (PC-3 [13]) was “Tde”, the Activity (MGC-803 [14]) was 23.2% and the AUC(0-t) at 24 h [15] was 0.699 µg·h/mL. The Activity (MGC-803 [16]) was 39.3%, the inhibition (PC-3 [17]) was “Tde” and the Activity (MGC-803 [18]) was 40.4%. For the same compound, the Activity (PC-3 [19]) was 39.8%, the Activity (PC-3 [20]) was 21.1% and the Activity (MGC-803 [21]) was “Dose-Dependent Effect”. The Activity [22] was “Active”, the inhibition (PC-3 [23]) was “Dose-Dependent Effect” and the Activity (PC-3 [24]) was 19.9%. The Activity (MGC-803 [25]) was 20.1%, the inhibition [26] was 73.7% and the Activity (MGC-803 [27]) was 35.8%. The Activity [28] was “Non-Toxic”, the Activity (MGC-803 [29]) was 14.4% and the Activity (PC-3 [30]) was 30.1%. The Activity (PC-3 [31]) was 26.7%, the Activity (MGC-803 [32]) was 44.3% and the Activity (MGC-803 [33]) was 49.8%. For the same compound, the Activity (PC-3 [34]) was “Dose-Dependent Effect” and the Activity (PC-3 [35]) was 28.1%.
